{"source": "patent US10039779B2", "about": "“Combination formulation of two antiviral compounds” (priority 2013, dated 2018)", "assay_type_in_all_cases": "physicochemical", "key": {"[1]": {"assay": "pH-solubility profile and solubility in simulated intestinal media", "settings": "for solubility at 48 h: thermodynamic from solid", "description": "Excess solid ledipasvir was added to a range of pH-adjusted aqueous solutions (titrated with HCl or NaOH) and stirred for 48 hours at room temperature. The suspensions were then filtered through regenerated cellulose syringe filters. The pH value of the supernatant was measured, and the supernatant was diluted as appropriate with 50:50 H2O+0.1% TFA:ACN and assayed for ledipasvir content by the HPLC-UV method.\nSolubility of ledipasvir amorphous free base was assessed in three types of simulated intestinal fluids at pH 6.5 or pH 5.0; and simulated intestinal bile salt and lecithin mixture (SIBLM), pH 6.4. Excess solid ledipasvir was added to the respective SIFs and stirred for 48 hours at room temperature. The resulting suspensions were then filtered through regenerated cellulose syringe filters. The supernatant was diluted as appropriate with 50:50 H2O+0.1% TFA:ACN and assayed for ledipasvir content by the HPLC-UV method."}, "[2]": {"assay": "Excipient and organic solvent solubility", "settings": "thermodynamic from solid", "description": "Solubility of ledipasvir amorphous free base and ledipasvir crystalline D-tartrate was measured in a wide range of pharmaceutically acceptable solvents, including cosolvents, surfactants, fatty acids, triglycerides, or blends thereof. Material was weighed into scintillation vials and stirred for up to 48 hours at room temperature. In many cases, solubility was higher than the amount of solid used in the sample, thus many results are reported as ‘greater than’ or ‘greater than or equal to’ if the concentration was not quantitatively determined by HPLC-UV."}, "[3]": {"assay": "Aqueous solubility with 0.1% w/w surfactants and polymers; dissolution behavior of forms", "settings": "for solubility: thermodynamic from solid", "description": "Excess solid was added to aqueous buffered solutions; samples were withdrawn at predetermined intervals (2, 5, 8, 10, 15, 20, 30, 45, 60 minutes, and 24 hours), filtered through regenerated cellulose filters, and diluted for concentration measurement by the HPLC-UV method."}}}
{"smiles": "COC(=O)N[C@H](C(=O)N1CC2(CC2)C[C@H]1c1ncc(-c2ccc3c(c2)C(F)(F)c2cc(-c4ccc5nc([C@@H]6[C@H]7CC[C@H](C7)N6C(=O)[C@@H](NC(=O)OC)C(C)C)[nH]c5c4)ccc2-3)[nH]1)C(C)C", "note": "[Ledipasvir amorphous free base]", "values": [{"measurement": "solubility", "setting": "[1]; Aqueous, pH 1.6 (HCl), room temperature", "value": 6855, "unit": "µg/mL"}, {"measurement": "solubility", "setting": "[1]; Aqueous, pH 2.3 (HCl), room temperature", "value": 1096, "unit": "µg/mL"}, {"measurement": "solubility at 48 h", "setting": "[1]; FaSSIF, pH 6.5, fassif, FaSSIF pH = 6.5, room temperature", "value": 25, "unit": "µg/mL"}, {"measurement": "solubility at 48 h", "setting": "[1]; FeSSIF, pH 5, fessif, FeSSIF pH = 5.0, room temperature", "value": 230, "unit": "µg/mL"}, {"measurement": "solubility at 48 h", "setting": "[1]; SIBLM (simulated intestinal bile salt and lecithin mixture), pH 6.4, fassgf or other biorelevant, SIBLM pH = 6.4, room temperature", "value": 232, "unit": "µg/mL"}, {"measurement": "intrinsic solubility (S0)", "setting": "[1]; aqueous, neutral form (pH>5), room temperature", "value": "approximately 0.04 μg/mL"}, {"measurement": "solubility at 48 h", "setting": "[1]; pH-adjusted aqueous solution (HCl), pH 1.6, aqueous buffer, Aqueous, pH 1.6 (HCl), room temperature", "value": "~7000", "unit": "µg/mL"}, {"measurement": "solubility at 48 h", "setting": "[1]; pH-adjusted aqueous solution (HCl), pH 2.3, aqueous buffer, Aqueous, pH 2.3 (HCl), room temperature", "value": 1000, "unit": "µg/mL"}, {"measurement": "solubility at 48 h", "setting": "[1]; pH-adjusted aqueous solution, pH 3.1, aqueous buffer, Aqueous, pH 3.1 (HCl), room temperature", "value": 13.2, "unit": "µg/mL"}, {"measurement": "solubility at 48 h", "setting": "[1]; pH-adjusted aqueous solution, pH 4.1, aqueous buffer, Aqueous, pH 4.1 (HCl), room temperature", "value": 0.11, "unit": "µg/mL"}, {"measurement": "solubility at 48 h", "setting": "[1]; pH-adjusted aqueous solution, pH 5.5, aqueous buffer, Aqueous, pH 5.5 (HCl), room temperature", "value": 0.03, "unit": "µg/mL"}, {"measurement": "solubility at 48 h", "setting": "[1]; pH-adjusted aqueous solution, pH 6.2, water, Aqueous, pH 6.2 (unaltered), room temperature", "value": 0.03, "unit": "µg/mL"}, {"measurement": "solubility at 48 h", "setting": "[1]; pH-adjusted aqueous solution, pH 7.2, aqueous buffer, Aqueous, pH 7.2 (NaOH), room temperature", "value": 0.01, "unit": "µg/mL"}, {"measurement": "increase of solubility in SIBLM over FaSSIF", "setting": "[1]; room temperature", "value": "approximately 10 fold"}, {"measurement": "solubility", "setting": "[2]; oil or lipid", "value": "> 500000", "unit": "µg/mL"}, {"measurement": "solubility", "setting": "[2]; pH 2.5, aqueous with cosolvent or surfactant or cyclodextrin", "value": 25000, "unit": "µg/mL"}, {"measurement": "dissolution behavior relative to other ledipasvir forms", "setting": "[3]; aqueous buffered solutions", "value": "faster than that of the crystalline free base and acetone solvate forms"}, {"measurement": "solubility", "setting": "[3]; aqueous citrate buffer with excipient, pH 2, aqueous with cosolvent or surfactant or cyclodextrin, 0.1% w/w PVP (povidone), pH 2", "value": 5470, "unit": "µg/mL"}, {"measurement": "solubility", "setting": "[3]; aqueous citrate buffer with excipient, pH 2, aqueous with cosolvent or surfactant or cyclodextrin, 0.1% w/w PVP/VA (copovidone), pH 2", "value": 6730, "unit": "µg/mL"}, {"measurement": "solubility", "setting": "[3]; aqueous citrate buffer with excipient, pH 2, aqueous with cosolvent or surfactant or cyclodextrin, 0.1% w/w Sodium lauryl sulfate, pH 2", "value": 50, "unit": "µg/mL"}, {"measurement": "solubility", "setting": "[3]; aqueous citrate buffer with excipient, pH 5, aqueous with cosolvent or surfactant or cyclodextrin, 0.1% w/w PVP (povidone), pH 5", "value": 0.4, "unit": "µg/mL"}, {"measurement": "solubility", "setting": "[3]; aqueous citrate buffer with excipient, pH 5, aqueous with cosolvent or surfactant or cyclodextrin, 0.1% w/w PVP/VA (copovidone), pH 5", "value": 1, "unit": "µg/mL"}, {"measurement": "solubility", "setting": "[3]; aqueous citrate buffer with excipient, pH 5, aqueous with cosolvent or surfactant or cyclodextrin, 0.1% w/w Sodium lauryl sulfate, pH 5", "value": 243, "unit": "µg/mL"}, {"measurement": "solubility", "setting": "[3]; aqueous citrate buffer, no excipient, pH 2, aqueous buffer, pH 2, room temperature", "value": 4940, "unit": "µg/mL"}, {"measurement": "solubility", "setting": "[3]; aqueous citrate buffer, no excipient, pH 5, aqueous buffer, pH 5, room temperature", "value": 0.1, "unit": "µg/mL"}, {"measurement": "solubility", "setting": "[3]; pH 2, aqueous with cosolvent or surfactant or cyclodextrin, 0.1% w/w Cremaphor EL, pH 2", "value": 9110, "unit": "µg/mL"}, {"measurement": "solubility", "setting": "[3]; pH 2, aqueous with cosolvent or surfactant or cyclodextrin, 0.1% w/w HPC (hydroxypropylcellulose), pH 2", "value": 4670, "unit": "µg/mL"}, {"measurement": "solubility", "setting": "[3]; pH 2, aqueous with cosolvent or surfactant or cyclodextrin, 0.1% w/w HPMC (hydroxymethylcellulose), pH 2", "value": 5270, "unit": "µg/mL"}, {"measurement": "solubility", "setting": "[3]; pH 2, aqueous with cosolvent or surfactant or cyclodextrin, 0.1% w/w Labrasol, pH 2", "value": 7440, "unit": "µg/mL"}, {"measurement": "solubility", "setting": "[3]; pH 2, aqueous with cosolvent or surfactant or cyclodextrin, 0.1% w/w Poloxamer 188, pH 2", "value": 7190, "unit": "µg/mL"}, {"measurement": "solubility", "setting": "[3]; pH 2, aqueous with cosolvent or surfactant or cyclodextrin, 0.1% w/w Polysorbate 80, pH 2", "value": 9270, "unit": "µg/mL"}, {"measurement": "solubility", "setting": "[3]; pH 5, aqueous with cosolvent or surfactant or cyclodextrin, 0.1% w/w Cremaphor EL, pH 5", "value": 69.9, "unit": "µg/mL"}, {"measurement": "solubility", "setting": "[3]; pH 5, aqueous with cosolvent or surfactant or cyclodextrin, 0.1% w/w HPC (hydroxypropylcellulose), pH 5", "value": 0.1, "unit": "µg/mL"}, {"measurement": "solubility", "setting": "[3]; pH 5, aqueous with cosolvent or surfactant or cyclodextrin, 0.1% w/w HPMC (hydroxymethylcellulose), pH 5", "value": 0.3, "unit": "µg/mL"}, {"measurement": "solubility", "setting": "[3]; pH 5, aqueous with cosolvent or surfactant or cyclodextrin, 0.1% w/w Poloxamer 188, pH 5", "value": 0.5, "unit": "µg/mL"}, {"measurement": "solubility", "setting": "[3]; pH 5, aqueous with cosolvent or surfactant or cyclodextrin, 0.1% w/w Polysorbate 80, pH 5", "value": 62.4, "unit": "µg/mL"}]}
